Measurements reported in patent US20230381125A1.
Like-named read-outs stand apart in the source and are kept apart here.

How the values were obtained:
[1] = phase 1b oral dosing study; cited from earlier work
[2] = target: SARS-CoV-2 binding to its cellular receptor (UniProt P0DTC2+Q9BYF1); conditions: NIH core screening facility data; cited from earlier work
[3] = test system: SARS-CoV-2; format: in vivo, K18-hACE2 mice; conditions: for mice that died during the 7-day observation period: control 3/5 died
[4] = room temperature; cited from earlier work
[5] = rodent models of acute lung injury; cited from earlier work
[6] = test system: MHV-1; assay: MHV-1 infected A/J mice given GABA-R agonist in drinking water; format: in vivo; conditions: for body weight loss vs. plain water (FIG. 4A) / death rate vs. plain water (FIG. 4C) / disease (illness) scores vs. plain water (FIG. 4B) / lung coefficient index vs. plain water (FIG. 4D): Example 2, in water: GABA 2 mg/mL, homotaurine 0.25 mg/mL, baclofen 0.25 mg/mL; for mice that died up to day 14 post-infection: control 3/9 survived; for average body weight loss by day 6: control lost 23%
[7] = cited from earlier work; for CD4+ and CD8+ Treg responses in vivo / autoreactive Th1 and Th17 cells in vivo: in vivo administration; for disease progression in mouse models of type 1 diabetes, multiple sclerosis, and rheumatoid arthritis / inflammation in a mouse model of type 2 diabetes: in vivo
[8] = test system: anti-CD3-activated human PBMC; conditions: cited from earlier work
[9] = cited from earlier work
[10] = test system: SARS-CoV-2; conditions: cited from earlier work
[11] = large long-term phase III clinical trial; cited from earlier work
[12] = 0.2 mg/mL p=0.049, 20 mg/mL p=0.174, log-rank test
[13] = GABA 20 mg/ml in water, from 3 days post-infection
[14] = GABA 20 mg/ml in water, starting immediately after MHV-1 inoculation

## NCCCC(=O)O [GABA, gamma-aminobutyric acid]
[1]
  safety: safe
[2]
  interference with SARS-CoV-2 interaction with its cellular receptor: did not interfere
[3]; [12]
  death rates vs. plain water: reduced
  survival following SARS-CoV2 infection vs. control (FIG. 5): increased
[3]; GABA 0.2 mg/mL in water, p<0.05
  mice that died during the 7-day observation period: none
[3]; GABA 20 mg/ml in water, p=0.174
  mice that died during the 7-day observation period: 1/5
[3]; lungs harvested on days 6-7, data not shown
  viral N1 and N2 transcripts in the lungs (RT-qPCR) vs. control: tended to be lower
[4]
  stability: stable at room temperature
[5]
  inflammation, alveolar fluid clearance and lung functional recovery: reduce inflammation and improve alveolar fluid clearance and lung functional recovery
[6]
  body weight loss vs. plain water (FIG. 4A): significantly reduced
  death rate vs. plain water (FIG. 4C): significantly reduced
  disease (illness) scores vs. plain water (FIG. 4B): significantly reduced
[6]; GABA0 and GABA3 vs. control, p<0.0001
  body weight loss vs. control (FIG. 1A): reduced
[6]; GABA0 and GABA3 vs. control, p<0.001
  illness scores vs. control (FIG. 2): reduced
[6]; GABA0 p=0.002, GABA3 p=0.001, log rank test
  survival following MHV-1 infection vs. control (FIG. 1B): increased
[6]; GABA 20 mg/ml in water immediately after inoculation, day 7 post-infection
  highest average illness score (scale 0-5): 1.6
[6]; [13]
  body weight at 14 days post-infection, % of starting weight: 90%
  maximum mean illness score (scale 0-5): 2.5
[6]; GABA 20 mg/ml in water, from 3 days post-infection, death on day 9
  mice that died up to day 14 post-infection: 1/9
[6]; GABA 20 mg/ml in water, given from three days after infection
  average body weight loss by day 6: 17%
[6]; GABA 20 mg/ml in water, given immediately after MHV-1 infection
  average body weight loss by day 6: 11%
[6]; [14]
  body weight below starting weight 14 days post-infection: 7%
  mice that died up to day 14 post-infection: none
[7]
  CD4+ and CD8+ Treg responses in vivo: promoting
  autoreactive Th1 and Th17 cells in vivo: inhibits
  disease progression in mouse models of type 1 diabetes, multiple sclerosis, and rheumatoid arthritis: inhibits disease progression
  inflammation in a mouse model of type 2 diabetes: limits inflammation
[8]
  IL-6, CXCL10/IP-10, CCL4, CCL20, and MCP-3 production: inhibits
[9]; hundreds of epilepsy patients
  clinical benefit (ability to reduce seizures): no clinical benefit
[9]; long-term studies in epilepsy patients
  adverse effects: no adverse effects
[10]; NIH core screening facility data
  interference with SARS-CoV-2 replication: did not interfere
[10]; NIH drug screening program
  effect on SARS infection or replication: no effect

## NCC(CC(=O)O)c1ccc(Cl)cc1 (centres unmarked) [baclofen]
[6]
  body weight loss vs. plain water (FIG. 4A): did not significantly decrease
  death rate vs. plain water (FIG. 4C): did not significantly decrease
  disease (illness) scores vs. plain water (FIG. 4B): slight but significant ability to reduce
  lung coefficient index vs. plain water (FIG. 4D): did not significantly decrease

## NCCCS(=O)(=O)O [homotaurine]
[4]
  stability: stable at room temperature
[6]
  body weight loss vs. plain water (FIG. 4A): significantly reduced
  death rate vs. plain water (FIG. 4C): significantly reduced
  disease (illness) scores vs. plain water (FIG. 4B): significantly reduced
  lung coefficient index vs. plain water (FIG. 4D): significantly reduced
[7]
  CD4+ and CD8+ Treg responses in vivo: promoting
  autoreactive Th1 and Th17 cells in vivo: inhibits
  disease progression in mouse models of type 1 diabetes, multiple sclerosis, and rheumatoid arthritis: inhibits disease progression
  inflammation in a mouse model of type 2 diabetes: limits inflammation
[11]
  efficacy in Alzheimer's disease: not effective
  safety: excellent safety record
